Patent EP4778929A1, “NOVEL TYPE I TOPOISOMERASE INHIBITOR, AND PREPARATION METHOD THEREFOR AND USE THEREOF” (priority 2023, dated 2025)
Read-outs that look alike come from different tables or passages of the source.

Assays:
[1] = tested on: Human colon cancer CR00090 cells; assay: CR00090 human colon cancer model (subcutaneous); format: in vivo, NPSG mice; details: day 28 post-treatment, 5 mg/kg, IV, BIW×4W; for tumor volume: vehicle control 1093 mm^3
Protocol: Test Example 5: Pharmacodynamic Evaluation of Compound 117, Compound 250, and Compound 253 in the CR00090 Human Colon Cancer Model
Human colon cancer CR00090 cells were thawed, counted, and mixed with Matrigel at a 1:1 ratio. Then, 0.1 mL (5×10^5 cells) of CR00090 cells were subcutaneously inoculated into the right dorsal region near the upper forelimb of each mouse (NPSG mice, female, 6-8 weeks old). Treatment was initiated when the average tumor volume reached approximately 84 mm^3. Tumor volume was measured twice weekly. At the end of the experiment, the tumor growth inhibition rate (TGI) was calculated as: TGI (%) = [1 - (average tumor volume at the end of treatment in a particular group - average tumor volume at the start of treatment in that group) / (average tumor volume at the end of treatment in the vehicle control group - average tumor volume at the start of treatment in the vehicle control group)] × 100%.
(§1) Experimental Groups and Dosing Regimen:
• 1, Vehicle control group • 2, Compound 117, 5 mg/kg, IV, BIW×4W • 3, Compound 250, 5 mg/kg, IV, BIW×4W • 4, Compound 253, 5 mg/kg, IV, BIW×4W

[2] = tested on: Human colon cancer HCT116 cells; assay: Subcutaneous xenograft model of human colon cancer HCT-116 cells; format: in vivo, BALB/c nude mice; details: day 21 post-treatment, 5 mg/kg, IV, BIW×3W; for tumor volume: vehicle control 1146 mm^3
Protocol: Test Example 4. Pharmacodynamic Evaluation of Compound 2, Compound 250, and Compound 253 in a Subcutaneous Xenograft Model of Human Colon Cancer HCT-116 Cells in BALB/c Female Nude Mice
Human colon cancer HCT116 cells were cultured in vitro as monolayers in McCoys 5a medium supplemented with 10% fetal bovine serum and 1% penicillin/streptomycin/amphotericin B at 37 °C in a 5% CO2 incubator. Cells were routinely passaged twice a week using trypsin-EDTA digestion. When cells reached 80%-90% confluence and the required cell number was achieved, cells were harvested. HCT116 cells (0.1 mL, 5×10^6 cells) were subcutaneously inoculated into the right dorsal region near the upper forelimb of each mouse (BALB/c nude mice, female, 6-8 weeks old). Treatment was initiated when the average tumor volume reached approximately 158 mm^3. Tumor volume was measured twice weekly. At the end of the experiment, the tumor growth inhibition rate (TGI) was calculated as: TGI (%) = [1 - (average tumor volume at the end of treatment in a particular group - average tumor volume at the start of treatment in that group) / (average tumor volume at the end of treatment in the vehicle control group - average tumor volume at the start of treatment in the vehicle control group)] × 100%.
as §1
• 1, Vehicle control group • 2, Compound 2, 5 mg/kg, IV, BIW×3W • 3, Compound 250, 5 mg/kg, IV, BIW×3W • 4, Compound 253, 5 mg/kg, IV, BIW×3W

HCT116 cells = assay: Inhibition of cell proliferation by CTG (CellTiter-Glo) luminescence assay; format: cell-based; details: Homo sapiens, read-out: HCT116, IC50
Procedure, shortened: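 Nine-point 1:3 dilutions applied to HCT116 cells (2 000/well, McCoy's 5a + 10 % FBS) for 72 h at 37 °C, final DMSO 0.25 %. Viability read by CellTiter-Glo luminescence; % inhibition versus DMSO controls fitted to four-parameter logistic for IC50.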

in vivo = details: male, CD-1, mouse
Protocol: Test Example 3. Pharmacokinetic Study for Determining Compound Concentrations in Mice by LC-MS/MS
Principle: LC-MS/MS is used to quantify the plasma concentrations of the test article at successive time points, generating an in-vivo pharmacokinetic profile.
Procedure: The test compound was dissolved in DMSO to prepare a 10 mg/mL stock solution. This stock was further diluted to 1 mg/mL with a vehicle consisting of 10 % DMSO + 10 % Solutol HS-15 + 80 % saline. Male CD-1 mice (JH Laboratory Animal Co., LTD) were employed; six animals were assigned per compound group. […] Serial blood samples (~50 µL whole blood, K2EDTA anticoagulant) were collected at 0.083, 0.25, 0.5, 1, 2, 4, 8 and 24 h (three mice per time point in a crossover design). Blood was centrifuged at 6 000 g for 5 min at 4 °C; plasma was harvested and stored at -70 °C until analysis. Plasma drug concentrations were determined by LC-MS/MS.
Calibration Curve and QC Preparation: Working solutions were prepared by dilution with MeOH:H2O (1:1). For each calibration or QC level, 3 µL of working solution was spiked into 57 µL of blank mouse plasma.
Sample Processing: To 30 µL of plasma was added 200 µL of methanol containing the internal standard (propranolol, 40 ng mL^-1). After vortex-mixing for 1 min, the mixture was centrifuged at 12 000 rpm for 10 min. A 100 µL aliquot of the supernatant was transferred to a clean plate for injection.
Pharmacokinetic Analysis: Concentration-time data were analyzed with WinNonlin 8.2 using a non-compartmental approach to derive PK parameters including Cmax, Tmax, AUC and terminal elimination half-life (t1/2). AUC was calculated by the linear-up/log-down trapezoidal method. Table 3. Pk parameters of compounds

topoisomerase I (Topo I) = target: T1, topoisomerase I (Topo I) (Homo sapiens, UniProt P11387); assay: Topo I enzyme-inhibitory activity by agarose-gel electrophoresis (plasmid relaxation); format: biochemical; details: read-out: inhibition of topoisomerase I (Topo I) enzymatic activity, IC50; 0.75 U Topo I, pNO1 plasmid, 37 °C, 30 min; compounds listed by group (Group A / Group B)
T1 sequence (P11387 1-765): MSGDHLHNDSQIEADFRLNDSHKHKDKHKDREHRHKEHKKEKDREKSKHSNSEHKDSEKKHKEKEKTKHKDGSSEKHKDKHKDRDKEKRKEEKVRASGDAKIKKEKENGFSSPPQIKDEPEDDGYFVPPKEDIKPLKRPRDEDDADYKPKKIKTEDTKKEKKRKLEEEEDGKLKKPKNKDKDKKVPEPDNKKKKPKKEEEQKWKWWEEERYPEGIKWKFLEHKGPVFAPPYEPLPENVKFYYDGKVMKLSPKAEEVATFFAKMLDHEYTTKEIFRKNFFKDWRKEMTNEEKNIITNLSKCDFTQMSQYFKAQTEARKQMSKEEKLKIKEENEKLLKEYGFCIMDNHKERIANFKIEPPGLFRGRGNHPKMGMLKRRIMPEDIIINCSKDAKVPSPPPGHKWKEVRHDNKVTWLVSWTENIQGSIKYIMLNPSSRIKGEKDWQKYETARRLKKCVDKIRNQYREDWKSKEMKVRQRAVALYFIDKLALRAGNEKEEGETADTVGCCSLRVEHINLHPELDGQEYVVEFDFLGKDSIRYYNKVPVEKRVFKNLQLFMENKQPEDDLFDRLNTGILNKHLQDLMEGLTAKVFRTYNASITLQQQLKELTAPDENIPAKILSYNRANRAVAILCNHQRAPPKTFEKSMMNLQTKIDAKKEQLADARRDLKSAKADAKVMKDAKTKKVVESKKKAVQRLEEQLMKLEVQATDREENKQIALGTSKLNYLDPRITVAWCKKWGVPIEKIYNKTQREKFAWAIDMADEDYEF
Procedure, shortened: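 Supercoiled pNO1 plasmid (0.5 µg) was relaxed by Topo I (0.75 U) in 20 mM Tris-HCl pH 7.5, 200 mM NaCl, 0.25 mM EDTA, 5 % glycerol, 5 % DMSO final, for 30 min at 37 °C. Supercoiled band intensity on agarose gel was normalized to no-enzyme and vehicle controls. IC50 from a four-parameter logistic fit.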

[3] = HCT-116, 72 h incubation, CellTiter-Glo

Row | SMILES | TGI [1] [%] | tumor volume [1] [mm^3] | TGI [2] [%] | tumor volume [2] [mm^3] | IC50 (HCT116 cells; [3]) [nM] | IC50 (HCT116 cells; HCT-116, 72 h) [nM] | IC50 (topoisomerase I (Topo I)) [nM] | also measured
1 | CC[C@@]1(O)C(=O)OCc2c1cc1n(c2=O)Cc2c-1c(=O)c1cc(F)ccc1n2[C@@H]1CCN(C)C1 [Example 250, (S)-4-ethyl-8-fluoro-4-hydroxy-11-((R)-1-methylpyrrolidin-3-yl)-1,12-dihydro-14H-pyrano[3',4':6,7]indolizino[2,1-b] quinoline-3,6,14(4H,11H)-trione] | 80.0 | 286 | 83.1 | 326 | < 20 | – | – | bioavailability (in vivo): 35.9%; AUC(0-t) (in vivo; iv, 2 mg/kg): 543 ng·h/mL; Cmax (in vivo; iv, 2 mg/kg): 1210 ng/mL; clearance (in vivo; iv, 2 mg/kg): 62.9 mL/min/kg; half-life (in vivo; iv, 2 mg/kg): 17.9 min; AUC(0-t) (in vivo; po, 20 mg/kg): 1930 ng·h/mL; Cmax (in vivo; po, 20 mg/kg): 1120 ng/mL; Tmax (in vivo; po, 20 mg/kg): 30 min; half-life (in vivo; po, 20 mg/kg): 231 min
2 | CC[C@@]1(O)C(=O)OCc2c1cc1n(c2=O)Cc2c-1c(=O)c1cc(F)ccc1n2[C@@H]1CCN(C2CCC2)C1 [Example 253, (S)-4-ethyl-8-fluoro-4-hydroxy-11-((R)-1-cyclobutylpyrrolidin-3-yl)-1,12-dihydro-14H-pyrano[3',4':6,7]indolizino[2,1-b]quinoline-3,6,14(4H,11H)-trione] | 76.3 | 323 | 80.6 | 351 | < 20 | – | – | –
3 | CC[C@@]1(O)C(=O)OCc2c1cc1n(c2=O)Cc2c-1c(=O)c1cc(F)ccc1n2-c1cccc(N)c1 [Example 71, (S)-11-(3-aminophenyl)-4-ethyl-8-fluoro-4-hydroxy-1H-pyrano[3,4:6,7]indolizino[2,1-b]quinoline-3,6,14(4H,11H,12H)-trione] | – | – | – | – | – | < 20 | 200 to 500 | –
4 | CC[C@@]1(O)C(=O)OCc2c1cc1n(c2=O)Cc2c-1c(=O)c1cc(F)cc(C)c1n2CCN(C)C1CCCC1 [Example 172] | – | – | – | – | – | < 20 | 200 to 500 | –
5 | CC[C@@]1(O)C(=O)OCc2c1cc1n(c2=O)Cc2c-1c(=O)c1cc(F)ccc1n2CCN(C1CCCC1)C1CC1 [Example 137] | – | – | – | – | – | < 20 | 200 to 500 | –
6 | CC[C@@]1(O)C(=O)OCc2c1cc1n(c2=O)Cc2c-1c(=O)c1cc(F)ccc1n2-c1ccc(N)cc1 [Example 72, (S)-11-(4-aminophenyl)-4-ethyl-8-fluoro-4-hydroxy-1H-pyrano[3,4:6,7]indolizino[2,1-b]quinoline-3,6,14(4H,11H,12H)-trione] | – | – | – | – | – | < 20 | 200 to 500 | –
